These results are taken from patent US8314150B2, “Kinase protein binding inhibitors” (priority 2008, dated 2012).

For this experiment, the system named is FAK wildtype fibroblasts (MEFs). In words: MTT cell viability assay, FAK wildtype vs FAK null fibroblasts. The format is cell-based. To be noted: 72 hours, p<0.05. As for the experimental part:
The 3-(4,5-dimethylthiazol-2-yl)-5-(3-carboxymethoxyphenyl)-2-(4-sulfophenyl)-2H-tetrazolium compound from Promega Viability kit (Madison, Ill.) was added, and the cells were incubated at 37° C. for 1-2 hours. The optical density on 96-plate was analyzed with a microplate reader at 490 nm to determine cell viability. In addition, cells were stained with trypan blue after 24 hours of treatment with Y15 and the percent of cells that stained positive were determined with a hemacytometer. Cell adhesion assay—The poly-L-Lysine or Collagen (5 μg/ml) coated 96-well plates were blocked with the blocking buffer (medium with 0.5% BSA) for 1 hour at 37 C. […] Then 2% SDS was added to the dried plated and OD at 590 nm was measured for detecting cell adhesion. […] Protein concentrations were determined using a Bio-Rad Kit. The boiled samples were loaded on Ready SDS-10% PAGE gels (Bio Rad, Inc) and used for Western blot analysis with the protein-specific antibody. […] Detachment Assay—Cells were plated with and without inhibitors for 24 hours, and detached and attached cells were counted in a hemocytometer. We calculated the percent of detachment by dividing the number of detached cells by the total number of cells. The percent of detached cells was calculated in three independent experiments. […] For each experiment 300 cells per treatment were counted. […]

The structures appear in SMILES notation.

`Cl.Cl.Cl.Cl.Nc1cc(N)c(N)cc1N` [Y15, 1,2,4,5-benzenetetraamine tetrahydrochloride]: the “dose from which viability of FAK wildtype fibroblasts decreased compared to FAK null fibroblasts” value turned out to be 0.1 µM.
